Test results taken from US20040067904A1, “Gene therapy for prostate cancer: sensibilization of cells to dna damaging drugs and radiation” (priority 2003, published 2004).

Assays:
[1] = tested on: LNCaP cells stably transfected with pPSA (e/p)-DBD/F; assay: Androgen-regulated PARP-DBD expression (Western blot, RT-PCR, in situ immunofluorescence) in stably transfected LNCaP cells; type: cell-based, human; conditions: R1881 0-10 nM, 24 hours, charcoal-stripped serum for seven days
Procedure: The androgen responsive prostate carcinoma LNCaP and androgen independent PC-3 cell lines were obtained from American Type Culture Collection (Manassas, Va.) and maintained by serial passage in DMEM supplemented with 10% fetal bovine serum, 100 units/ml penicillin, and 100 μg/ml streptomycin at 37° C. in an atmosphere of 5% CO2 in air. Cells subjected to androgen stimulation tests were maintained in media with 10% charcoal-stripped fetal bovine serum for seven days before the addition of synthetic androgen R1881 (Perkin Elmer Life Science). […]
RNA was isolated from cells using TRIzol Reagent (Gibco) according to manufacturer's protocol. […] The amplified RT-PCR products were analyzed by 1% agarose gel electrophoresis, visualized by ethidium bromide staining and photographed under UV illumination.
Immunodetection of PARP-DBD Flag-fusion protein in human prostate carcinoma cells was performed as previously described (Soldatenkov et al., Cancer J Sci. Am., 3: 13-20 (1997)). […] Insoluble material was removed by centrifugation at […] for 30 min at 16,000×g and protein concentrations were determined using the “Micro BCA protein assay” (Pierce). […] Signals were detected using the enhanced chemiluminescence system (Amersham). […]

LNCaP cells = assay: Annexin V cell death assay (flow cytometry); type: cell-based, human; conditions: parental LNCaP cells and un-induced LNCaP-DBD sublines; etoposide 10 μM; 24 h
Procedure: Surface expression of phosphadtidyl serine was determined by Annexin V staining (Trevigen) according to the manufacturer's recommendations. Briefly, LNCaP cells (2-5×10^5) were harvested, washed in PBS and exposed to FITC-labeled Annexin V. To exclude staining of phosphadtidyl serine on the inner surface of the cell membrane, indicative of cytoplasmic membrane disintegration, cells were counterstained with propidium iodite. FITC-Annexin V and propidium iodite staining was determined using a FACStar Plus flow cytometer (Becton Dickinson FACS System). Apoptotic cells were defined as FITC positive and PI negative.

plasmid DNA fragments = assay: Atomic force microscopy of PARP / PARP-DBD interaction with DNA; type: binding
Procedure: DNA samples or PARP-DNA binding reaction product in Mg^2+containing buffer were deposited on an […] mica surface, allowed to adsorb for 1 min, rinsed with deionized water, and dried in a gentle nitrogen flow. The AFM images were obtained using a NanoScope IIIa instrument equipped with E-scanner (Digital Instruments, Santa Barbara, Calif.) operating in a tapping mode in air as described (Smulson et al., Cancer Res., 58: 3495-3498 (1998)). The tapping frequency of the 125 μm silicon cantilever was 300-400 KHz and the nominal scanning rate was set at 1-2 Hz. No less than 150 uncomplexed DNA molecules and 100 of PARP-DNA complexes were analyzed in each experiment.

Molecule: C[C@]1(O)CC[C@H]2[C@@H]3CCC4=CC(=O)CCC4=C3C=C[C@@]21C [R1881]
- stimulation of PARP-DBD expression at levels of mRNA and protein [1]: dose-dependent stimulation

Molecule: COc1cc([C@@H]2c3cc4c(cc3[C@@H](O[C@@H]3O[C@@H]5CO[C@@H](C)O[C@H]5[C@H](O)[C@H]3O)[C@H]3COC(=O)[C@H]23)OCO4)cc(OC)c1O [etoposide]
- annexin V-binding activity (early apoptotic changes) (LNCaP cells): only modest increase

Molecule: Poly(ADP-ribose) polymerase [recombinant full length PARP]
- binding to DNA fragments (AFM) (plasmid DNA fragments; absence of NAD+): bound plasmid DNA fragments and linked them into chainlike structures
- binding to DNA fragments (AFM) (plasmid DNA fragments; presence of NAD+): dissociated from the DNA fragments
